Reference: patent EP0808325B1, “[…] […] SERIES FOR […] GABA RECEPTOR” (priority 1994, dated 1996)

What was measured:
GR complex = assay: modulation of [35S]TBPS binding in rat cerebral cortex P2 homogenate; set-up: species or system Sprague-Dawley rats; IMAX: unit not given here; conditions: for IC50: concentration of compounds to inhibit 50% of control [35S]TBPS binding, 2 nM [35S]TBPS, 25°C, 90 minutes; for IMAX: maximum inhibition of [35S]TBPS binding, I* = Inactive
Protocol: We performed several experiments to determine the nature of the modulation of [^35S]TBPS as affected by the compounds of the invention.
These procedures were performed as follows:
Brains from male Sprague-Dawley rats were removed immediately following sacrifice and the cerebral cortices dissected over ice. […] Briefly, the cortices were gently homogenized in 0.32 M sucrose followed by centrifugation at 1000 x g for 10 minutes. The supernatant was collected and centrifuged at 9000 x g for 20 minutes. The resultant P2 pellet was suspended as a 10% (original wet weight/volume) suspension in 50 mM Na/K phosphate buffer (pH 7.4) 200 mM NaCI to form the homogenate.
One hundred microliter […] aliquots of the P2 homogenate (0.5 milligrams (mg) protein) were incubated with 2 nanomolar (nM) [^35S]TBPS (70-110 curies/millimole;, New England Nuclear, Boston, MA) in the presence or absence of the naturally occurring steroids or their synthetic derivatives to be tested. The tested compounds were dissolved in dimethylsulfoxide (Baker Chem. Co., Phillipsbury, NJ) and added to the incubation mixture in 5 µL aliquots. The incubation mixture was brought to a final volume of 1 mL with buffer. Nonspecific binding was defined as binding in the presence of […]. The effect and specificity of GABA (Sigma Chem. Co., St. Louis, MO) was evaluated by performing all assays in the presence of GABA plus (+)bicuculline (Sigma Chem. Co.). Incubations maintained at 25°C for 90 minutes (steady state conditions) were terminated by rapid filtration through glass fiber filters (No. 32, Schleicher and Schuell, Keene, NH). Filter-bound radioactivity was quantitated by liquid scintillation spectrophotometry.
Various compounds were screened to determine their potential as modulators of [^35S]TBPS binding in vitro. These assays were performed in accordance with the above discussed procedures. […] It is an indication of a compound's in vitro potency. Maximum inhibition is an indication of a compound's in vitro efficacy.

rats = assay: Geller-Seifter conflict test; type: in vivo, Sprague-Dawley rats
Excerpt: This animal model of human anxiety utilizes a conditioned state of conflict in rats to ascertain the anxiolytic properties of drugs. Rats are conditioned to bar press for positive reinforcement under two schedules of behavior (Geller and Seifter, Psychopharmacologia 1:482-492 (1960)). The first includes bar pressing under a […] schedule without punishment. The second component is a fixed ratio schedule with each bar press resulting in a positive reinforcement and a punishment. The punished component produces a state of conflict within the animal. […] An anxiolytic response would increase the punished responding without affecting the unpunished responding.
Male albino Sprague-Dawley rats (Charles River Labs, Wilmington, MA) weighing 250-300 g were used for conflict experiments and were kept on a restricted diet of Purina Lab Chow food pellets with water available at all times to maintain body weight at 85% of their free-feeding young adult levels. Rats were housed individually under a 12-hour light-dark cycle with lights on from 0700-1900.
The anti-anxiety (punishment-lessening) and response depressant effects of […] and […] were measured in rats by the conflict test of Geller and Seifter (1960). In this 63-min test, hungry rats perform a lever-press response to obtain a sweetened milk reward. The reinforcement schedule consists of punishment and nonpunishment components, alternating approximately every 15 min. Rats were trained in test chambers (Coulbourn instruments) with a lever mounted in one wall, a small dipper that delivered the 0.1-mL milk reward (1 part Eagle condensed : milk 2 parts water), and a metal grid floor through which the foot-shock punishment was administered. A DEC PDP 11/73 minicomputer running SKED (State Systems) was used for programming and recording.
Rates initially learned to respond on a continuous reinforcement schedule and progressed rapidly to 30-sec, 1-min, and 2-min variable interval (VI) schedules. On the continuous reinforcement schedule, rats received milk reward following every lever press; on the VI schedules, milk rewards were available at infrequent and variable intervals, eventually at an average of once every 2 min. Four 3-min "conflict" periods were then introduced on the unpunished VI baseline; the first started after 3 min of VI performance and the others were alternated between 12-min periods of VI responding. During conflict periods, which were signalled by the presentation of a light and a tone, the continuous reinforcement schedule was again in force and each lever press delivered both a milk reward and a brief ([…]) foot-shock punishment. Shock intensity was 0.2 mA initially, and.was increased daily in increments of 0.02 mA in order to gradually suppress lever pressing to 5 responses or less per conflict period. This training took 4-6 weeks, after which stable low rates of response were observed during conflict periods and stable high rates in the nonpunishment periods. Drug-induced increases in the rate of punished responses were taken as an index of antianxiety activity, while decreases in the rate of unpunished responses were taken as an index of response depression or sedation.

[1] = test system: metrazol induced convulsions; assay: animal or person; type: in vivo, mice; conditions: IP, 10 mg/kg
Protocol: Experiments were also performed to determine the physiological relevance of neuroactive steroid and GABA receptor interactions by assessing the ability of the compounds of and used in the invention to prevent metrazol induced convulsions in mice. […] The time to onset of myoclonus (presence of forelimb clonic activity) induced by metrazol was determined by observing each mouse for a period of 30 minutes. […]
The anticonvulsant tests are similar to that described above. […] The number of animals with tonic and/or clonic convulsions was recorded. In the maximal electroshock test, 50 mA of current at 60 Hz was delivered through corneal electrodes for 200 msec to induce tonic seizure. The ability of compounds to abolish the tonic component was defined as the endpoint. General CNS depression potential was determined by a rotorod test 10 minutes after the injection of compounds where the number of mice staying on a rotating (6 rpm) rod for 1 minute in one of the three trials was determined. […]

mice = assay: elevated plus-maze; type: in vivo, N.I.H. Swiss-Webster mice; conditions: IP
Excerpt: The theoretical basis for the elevated plus-maze test is similar to that of the light/dark transition test. As described by Pellow et al., J. Neurosci. Meth 14:149-167 (1985), the elevated plus-maze apparatus is designed to utilize the mice's natural aversion to open spaces. The apparatus consists of two open-arms and two enclosed-arms. The elevated plus-maze test allows for two measures of anxiety, the number of entries into the open-arms and the time spent on the open-arms, both expressed as a percentage of the total number of entries and time spent in/on both the open-arms and enclosed-arms.
Male N.I.H. Swiss-Webster mice (Harlan, Indianapolis, IN) weighing 15-20 g were housed four per cage in polyethylene cages with sawdust bedding. The colony room was environmentally controlled (22°C) with a 12 hr light/dark cycle (0600-1800 hr). Food and water were available ad libitum, except during testing. The experiments were run from 0700-1500 hr and groups were counterbalanced for time of day effects. Mice were only administered drug or vehicle once.
The method used was previously described (Lister, Psychopharmacol. 92:180-185 (1987)). The apparatus included two open arms perpendicular to two enclosed arms elevated 50 cm from the floor. Each arm was 50 cm long and the walls of the enclosed arms were 40 cm tall. The maze was made completely of black plexiglass. Incandescent 200 W light bulbs were above each of the open arms to produce a strong contrast between the open arms and the enclosed arms.
Ten minutes after an injection, the N.I.H. Swiss-Webster mice were placed in the center of the plus-maze facing an open arm. During the 5 min test period, the number of entries onto the open arms and the enclosed arms, and the time spent in the open arms and enclosed arms were measured. All four paws had to be within an arm for the dependent variable to be measured. Therefore, the time spent in the center of the maze is not counted, so the total time spent in the open arms and the enclosed arms may not equal 5 min. […]

[2] = 50% hpbcd, 10 minutes prior to metrazol (85 mg/kg)

For `C[C@]12CC[C@](O)(C(F)(F)F)C[C@H]1CC[C@@H]1[C@@H]2CC[C@]2(C)[C@@H](C(=O)CO)CC[C@@H]12` [3α,21 Dihydroxy-3β-trifluoromethyl-5β-pregnan-20-one], the IC50 (GR complex; no unit printed) was 0.354 µM, the IMAX (GR complex) was 102 and the “Geller/Seifter (% of control)” value (rats; sc, 50% hpbcd, 16 mg/kg) was 982.4 % of control. The “% Protected” value [1, 2] was 50% and the “% Control” value (mice; 50% hpbcd, 10 mg/kg) was 237%.
`CC(=O)OCC(=O)[C@H]1CC[C@H]2[C@@H]3CC[C@@H]4C[C@@](O)(C(F)(F)F)CC[C@]4(C)[C@H]3CC[C@]12C` [3α,21-Dihydroxy-3β-trifluoromethyl-5β-pregnan-20-one, 21-acetate] was tested, and the IC50 (GR complex; no unit printed) was 0.37 µM, the IMAX (GR complex) was 88 and the “Geller/Seifter (% of control)” value (rats; sc, 50% hpbcd, 8 mg/kg) was 882.8 % of control. The “% Protected” value [1, 2] was 62.5% and the “% Control” value (mice; 50% hpbcd, 5 mg/kg) was 143.3%.
With `C[C@]12CC[C@](O)(C(F)(F)F)C[C@H]1CC[C@@H]1[C@@H]2CC[C@]2(C)[C@@H](C(=O)COC(=O)CCC(=O)[O-])CC[C@@H]12.[Na+]` [3α,21-Dihydroxy-3β-trifluoromethyl-5β-pregnan-20-one, 21-hemisuccinate, sodium salt] the IC50 (GR complex; unit inferred, sodium salt) was 0.712 µM, the IMAX (GR complex) was 99 and the “Geller/Seifter (% of control)” value (rats; po, water, 8 mg/kg) was 840.0 % of control. For the same molecule, the “% Protected” value ([1]; water) was 62.5% and the “% Control” value (mice; water, 20 mg/kg) was 172.8%.
For `C#C[C@@]1(O)CC[C@@]2(C)[C@H](CC[C@@H]3[C@@H]2CC[C@]2(C)[C@@H](C(=O)COC(=O)CCC(=O)O)CC[C@@H]32)C1` [3α,21-dihydroxy-3β-ethynyl-5β-pregnan-20-one 21 hemisuccinat] [3α,21-dihydroxy-3β-ethynyl-5β-pregnan-20-one 21 hemisuccinate], the IMAX (GR complex) was 82, the “Geller/Seifter (% of control)” value (rats; po, water, 16 mg/kg) was 1350.0 % of control and the “% Protected” value ([1]; water) was 50%. The “% Control” value (mice; 50% hpbcd, 10 mg/kg) was 164.2%.
For `CC1([C@H]2CC[C@H]3[C@@H]4CC[C@H]5C[C@](C)(O)CC[C@]5(C)[C@H]4CC[C@]23C)NC(C(=O)O)CS1` (stereo partly drawn) [3α-Hydroxy-3β-methyl-5α-pregnane-20-spiro-2'-(1'3'-thiazolidine-4'-carboxylic acid)], the “Geller/Seifter (% of control)” value (rats; sc, 50% hpbcd, 16 mg/kg) was 900.0 % of control.
For `CC=C1CCC2C3CCC4CC(O)(C(F)(F)F)CCC4C3CCC12C` (stereo not drawn) [3α-Hydroxy-3β-trifluoromethyl-5β-19-norpregn-17(20)(Z)-ene], the “Geller/Seifter (% of control)” value (rats; sc, 50% hpbcd, 16 mg/kg) was 1130.3 % of control and the “% Protected” value [1, 2] was 25%.
In the case of `CC(=O)[C@H]1CC[C@H]2[C@@H]3CC[C@@H]4C[C@@](O)(C(F)(F)F)CC[C@]4(C)[C@H]3C=C[C@]12C` [3α-Hydroxy-3β-trifluoromethyl-5β-pregn-11-en-20-one], the IC50 (GR complex; no unit printed) is reported as 0.203 µM, the IMAX (GR complex) is reported as 99 and the “Geller/Seifter (% of control)” value (rats; sc, 50% hpbcd, 4 mg/kg) is reported as 508.3 % of control.
`C=C(C)C#CC1(O)CCC2(C)C(CCC3C2CCC2(C)C(C(C)=O)CCC32)C1` (stereo not drawn) [3α-hydroxy-3β-(3'-methyl-but-3'-en-1'-ynyl)-5α-pregnan-20-one] was tested, and the IC50 (GR complex; no unit printed) was 0.088 µM, the IMAX (GR complex) was 95 and the “% Protected” value [1, 2] was 87.5%. For the same molecule, the “% Control” value (mice; 50% hpbcd, 10 mg/kg) was 141%.
`C=C(C)C#C[C@@]1(O)CC[C@@]2(C)[C@H](CC[C@@H]3[C@@H]2CC[C@]2(C)[C@@H](C(C)=O)CC[C@@H]32)C1` [3α-hydroxy-3β-(3'-methyl-but-3'-en-1'-ynyl)-5β-pregnan-20-one] was tested, and the IC50 (GR complex; no unit printed) was 0.024 µM, the IMAX (GR complex) was 91 and the “% Protected” value [1, 2] was 100%. The “% Control” value (mice; 50% hpbcd, 10 mg/kg) was 155%.
With `CC(=O)[C@H]1CC[C@H]2[C@@H]3CC[C@H]4C[C@@](O)(C(F)(F)F)CC[C@@H]4[C@H]3CC[C@]12C` [3β-Trifluoromethyl-3α-hydroxy-5α-19-norpregnan-20-one] the IC50 (GR complex; no unit printed) was 0.251 µM, the IMAX (GR complex) was 40 and the “% Protected” value [1, 2] was 25%. The “% Control” value (mice; 50% hpbcd, 10 mg/kg) was 161%.
`C=C[C@@]1(O)CC[C@@]2(C)[C@H](CC[C@@H]3[C@@H]2CC[C@]2(C)[C@@H](C(C)=O)CC[C@@H]32)C1` [3β-ethenyl-3α-hydroxy-5β-pregnan-20-one] was tested, and the IC50 (GR complex; no unit printed) was 0.046 µM, the IMAX (GR complex) was 100 and the “% Protected” value [1, 2] was 87.5%. For the same molecule, the “% Control” value (mice; 50% hpbcd, 10 mg/kg) was 151%.
In the case of `C#C[C@@]1(O)CC[C@H]2[C@H](CC[C@@H]3[C@@H]2CC[C@]2(C)[C@@H](C(C)=O)CC[C@@H]32)C1` [3β-ethynyl-3α-hydroxy-19-nor-5β-pregnan-20-one], the IC50 (GR complex; no unit printed) is reported as 0.044 µM, the IMAX (GR complex) is reported as 93 and the “% Protected” value [1, 2] is reported as 87.5%. The “% Control” value (mice; 50% hpbcd, 10 mg/kg) was 172%.
For “Bis (3α,21-dihydroxy-3β-trifluoromethyl-5β-pregnan-20-one) 21-hemisuccinate”, the IC50 (GR complex; no unit printed) was 0.189 µM, the IMAX (GR complex) was 23 and the “% Protected” value [1, 2] was 25%. The “% Control” value (mice; 50% hpbcd, 10 mg/kg) was 92%.
